According to paper PMC8307938, “The Lysozyme Inhibitor Thionine Acetate Is Also an Inhibitor of the Soluble Lytic Transglycosylase Slt35 from Escherichia coli” (Molecules, 2021):

Molecular target: T1, Slt35 (Escherichia coli, UniProt P41052)
T1 construct: gene mltB; N-terminal His-tag
T1 sequence (P41052 19-361): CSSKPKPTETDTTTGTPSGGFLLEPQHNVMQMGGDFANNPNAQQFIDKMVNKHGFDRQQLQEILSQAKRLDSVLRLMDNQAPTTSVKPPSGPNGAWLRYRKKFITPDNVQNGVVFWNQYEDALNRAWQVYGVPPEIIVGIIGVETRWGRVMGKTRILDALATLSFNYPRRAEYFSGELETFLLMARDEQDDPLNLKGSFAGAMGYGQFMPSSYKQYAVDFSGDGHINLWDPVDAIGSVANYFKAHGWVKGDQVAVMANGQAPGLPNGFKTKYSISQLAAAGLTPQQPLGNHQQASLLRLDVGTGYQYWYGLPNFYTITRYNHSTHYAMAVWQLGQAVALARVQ
Experiment: saturation transfer difference NMR ([…] compound, […] Slt35; weak; no inhibition up to […])
Assay type: binding

SMILES: OC[C@H]1NC[C@H](O)[C@@H](O)[C@@H]1O [1-deoxynojirimycin]
- saturation transfer difference NMR (5 mM compound, 20 μM Slt35); weak; no inhibit: weak enhancement of signals from 1-deoxynojirimycin on selective excitation of Slt35 (Figure S1), suggesting that this compound is capable of binding
